The values below come from ChEMBL document CHEMBL5291721, “A preclinical secondary pharmacology resource illuminates target-adverse drug reaction associations of marketed drugs” (Nat Commun, 2023).

Structures are written as SMILES.

The target of assay [1] is T1, Amine oxidase [flavin-containing] A (Homo sapiens, UniProt P21397).
T1 sequence (P21397 whole entry): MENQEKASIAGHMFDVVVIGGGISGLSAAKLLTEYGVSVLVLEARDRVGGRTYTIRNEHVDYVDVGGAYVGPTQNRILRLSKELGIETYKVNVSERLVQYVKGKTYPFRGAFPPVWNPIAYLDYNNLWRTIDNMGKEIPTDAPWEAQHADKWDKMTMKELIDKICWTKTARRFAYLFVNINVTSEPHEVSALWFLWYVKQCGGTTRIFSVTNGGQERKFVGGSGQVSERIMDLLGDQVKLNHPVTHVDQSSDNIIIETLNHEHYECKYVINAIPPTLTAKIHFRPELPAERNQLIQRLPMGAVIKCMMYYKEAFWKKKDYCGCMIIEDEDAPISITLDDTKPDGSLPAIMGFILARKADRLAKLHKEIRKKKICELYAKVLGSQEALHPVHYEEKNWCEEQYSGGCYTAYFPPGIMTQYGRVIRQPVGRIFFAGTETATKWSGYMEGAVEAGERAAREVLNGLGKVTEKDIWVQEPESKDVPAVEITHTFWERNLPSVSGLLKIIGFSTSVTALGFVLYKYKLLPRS
Type of assay: functional.

Assay [2] addresses T2, Muscarinic acetylcholine receptor M1 (Homo sapiens, UniProt P11229).
T2 sequence (P11229 whole entry): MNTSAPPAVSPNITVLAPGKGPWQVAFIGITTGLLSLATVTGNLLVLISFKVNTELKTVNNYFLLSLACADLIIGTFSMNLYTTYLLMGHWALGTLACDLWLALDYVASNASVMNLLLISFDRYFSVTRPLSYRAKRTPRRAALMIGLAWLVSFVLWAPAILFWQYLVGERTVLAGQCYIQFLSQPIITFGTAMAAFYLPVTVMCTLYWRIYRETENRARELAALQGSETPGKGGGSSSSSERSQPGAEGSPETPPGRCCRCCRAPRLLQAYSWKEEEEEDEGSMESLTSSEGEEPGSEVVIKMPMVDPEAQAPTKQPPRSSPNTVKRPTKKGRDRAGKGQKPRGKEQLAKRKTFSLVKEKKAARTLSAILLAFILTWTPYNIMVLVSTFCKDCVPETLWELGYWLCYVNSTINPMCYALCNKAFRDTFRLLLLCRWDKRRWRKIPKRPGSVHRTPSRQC
Type of assay: functional.

The target of assay [3] is 5-hydroxytryptamine receptor 2B (Homo sapiens, UniProt P41595). Type of assay: functional, cell-based.
Sequence of 5-hydroxytryptamine receptor 2B (P41595 whole entry): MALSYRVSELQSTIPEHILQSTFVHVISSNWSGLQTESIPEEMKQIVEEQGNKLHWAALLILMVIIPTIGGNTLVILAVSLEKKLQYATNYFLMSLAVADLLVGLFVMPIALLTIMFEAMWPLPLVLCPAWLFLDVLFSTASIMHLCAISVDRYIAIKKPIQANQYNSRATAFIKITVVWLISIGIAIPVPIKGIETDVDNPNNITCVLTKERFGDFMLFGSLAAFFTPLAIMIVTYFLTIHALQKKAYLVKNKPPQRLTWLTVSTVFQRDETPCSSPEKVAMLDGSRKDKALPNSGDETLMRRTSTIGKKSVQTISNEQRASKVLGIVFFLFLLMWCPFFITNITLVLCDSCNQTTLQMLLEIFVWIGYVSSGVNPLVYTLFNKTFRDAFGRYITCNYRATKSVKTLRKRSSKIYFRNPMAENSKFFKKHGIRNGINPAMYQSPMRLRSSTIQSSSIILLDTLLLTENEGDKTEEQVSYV
Another assay deals with D(1A) dopamine receptor (Homo sapiens, UniProt P21728). Type of assay: functional, cell-based.
Sequence of D(1A) dopamine receptor (P21728 whole entry): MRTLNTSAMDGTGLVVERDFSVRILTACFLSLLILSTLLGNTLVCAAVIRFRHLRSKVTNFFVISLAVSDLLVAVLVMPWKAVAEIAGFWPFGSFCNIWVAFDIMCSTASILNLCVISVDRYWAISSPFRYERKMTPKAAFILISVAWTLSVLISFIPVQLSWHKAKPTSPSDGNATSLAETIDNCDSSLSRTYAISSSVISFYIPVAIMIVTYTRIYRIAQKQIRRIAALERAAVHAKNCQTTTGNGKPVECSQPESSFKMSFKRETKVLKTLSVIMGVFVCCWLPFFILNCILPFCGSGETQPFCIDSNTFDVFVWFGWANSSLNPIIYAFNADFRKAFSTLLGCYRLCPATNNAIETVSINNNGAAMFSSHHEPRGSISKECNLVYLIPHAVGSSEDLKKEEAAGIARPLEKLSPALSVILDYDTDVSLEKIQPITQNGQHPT
Assay [4] addresses T3, Alpha-2A adrenergic receptor (Homo sapiens, UniProt P08913).
T3 sequence (P08913 whole entry): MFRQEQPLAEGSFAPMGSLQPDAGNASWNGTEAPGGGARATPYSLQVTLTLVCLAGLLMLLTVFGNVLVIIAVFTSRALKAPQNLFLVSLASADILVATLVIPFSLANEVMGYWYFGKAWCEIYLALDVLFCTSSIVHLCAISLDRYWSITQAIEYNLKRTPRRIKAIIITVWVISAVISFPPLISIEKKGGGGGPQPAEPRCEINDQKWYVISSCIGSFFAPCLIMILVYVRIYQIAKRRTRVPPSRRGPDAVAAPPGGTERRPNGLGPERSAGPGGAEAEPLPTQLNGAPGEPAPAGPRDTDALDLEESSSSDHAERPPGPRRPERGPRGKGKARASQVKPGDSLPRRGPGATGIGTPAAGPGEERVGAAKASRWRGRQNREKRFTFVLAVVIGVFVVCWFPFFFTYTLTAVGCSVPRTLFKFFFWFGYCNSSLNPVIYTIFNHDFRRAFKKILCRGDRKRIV
Type of assay: functional, cell-based.

In assay [5] the target is Sodium-dependent dopamine transporter (Homo sapiens, UniProt Q01959).
Sequence of Sodium-dependent dopamine transporter (Q01959 whole entry): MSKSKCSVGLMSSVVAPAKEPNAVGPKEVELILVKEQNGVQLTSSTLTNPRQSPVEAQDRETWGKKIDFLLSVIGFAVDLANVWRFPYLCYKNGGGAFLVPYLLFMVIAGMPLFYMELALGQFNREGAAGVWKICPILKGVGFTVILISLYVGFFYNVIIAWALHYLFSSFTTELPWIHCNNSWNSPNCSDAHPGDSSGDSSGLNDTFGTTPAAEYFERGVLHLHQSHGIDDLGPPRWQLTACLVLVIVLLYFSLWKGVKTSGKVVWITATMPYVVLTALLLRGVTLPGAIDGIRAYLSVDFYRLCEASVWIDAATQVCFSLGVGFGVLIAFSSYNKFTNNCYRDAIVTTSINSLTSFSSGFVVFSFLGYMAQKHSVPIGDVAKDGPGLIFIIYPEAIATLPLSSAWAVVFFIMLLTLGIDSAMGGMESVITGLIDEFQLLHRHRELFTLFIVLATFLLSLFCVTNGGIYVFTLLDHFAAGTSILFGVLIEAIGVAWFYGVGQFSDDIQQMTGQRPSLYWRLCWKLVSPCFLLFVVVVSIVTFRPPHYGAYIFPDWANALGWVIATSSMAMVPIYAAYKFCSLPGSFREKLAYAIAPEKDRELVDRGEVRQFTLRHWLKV
Assay [6] concerns the target T4, 5-hydroxytryptamine receptor 2C (Homo sapiens, UniProt P28335).
T4 sequence (P28335 whole entry): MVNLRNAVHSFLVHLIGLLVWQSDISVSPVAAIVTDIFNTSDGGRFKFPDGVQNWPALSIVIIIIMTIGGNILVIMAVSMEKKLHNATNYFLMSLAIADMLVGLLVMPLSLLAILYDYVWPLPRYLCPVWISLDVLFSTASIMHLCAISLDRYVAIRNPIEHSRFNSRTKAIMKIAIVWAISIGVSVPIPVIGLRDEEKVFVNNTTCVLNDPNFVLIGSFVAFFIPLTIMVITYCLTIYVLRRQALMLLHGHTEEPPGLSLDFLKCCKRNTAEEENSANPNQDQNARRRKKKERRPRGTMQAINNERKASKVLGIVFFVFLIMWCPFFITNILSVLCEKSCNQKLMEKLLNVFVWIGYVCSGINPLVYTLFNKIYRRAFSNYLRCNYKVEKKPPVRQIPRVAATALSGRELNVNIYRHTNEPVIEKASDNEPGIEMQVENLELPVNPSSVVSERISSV

In assay [7] the target is cGMP-inhibited 3',5'-cyclic phosphodiesterase 3A (Homo sapiens, UniProt Q14432). In kind it is functional.
Sequence of cGMP-inhibited 3',5'-cyclic phosphodiesterase 3A (Q14432 whole entry): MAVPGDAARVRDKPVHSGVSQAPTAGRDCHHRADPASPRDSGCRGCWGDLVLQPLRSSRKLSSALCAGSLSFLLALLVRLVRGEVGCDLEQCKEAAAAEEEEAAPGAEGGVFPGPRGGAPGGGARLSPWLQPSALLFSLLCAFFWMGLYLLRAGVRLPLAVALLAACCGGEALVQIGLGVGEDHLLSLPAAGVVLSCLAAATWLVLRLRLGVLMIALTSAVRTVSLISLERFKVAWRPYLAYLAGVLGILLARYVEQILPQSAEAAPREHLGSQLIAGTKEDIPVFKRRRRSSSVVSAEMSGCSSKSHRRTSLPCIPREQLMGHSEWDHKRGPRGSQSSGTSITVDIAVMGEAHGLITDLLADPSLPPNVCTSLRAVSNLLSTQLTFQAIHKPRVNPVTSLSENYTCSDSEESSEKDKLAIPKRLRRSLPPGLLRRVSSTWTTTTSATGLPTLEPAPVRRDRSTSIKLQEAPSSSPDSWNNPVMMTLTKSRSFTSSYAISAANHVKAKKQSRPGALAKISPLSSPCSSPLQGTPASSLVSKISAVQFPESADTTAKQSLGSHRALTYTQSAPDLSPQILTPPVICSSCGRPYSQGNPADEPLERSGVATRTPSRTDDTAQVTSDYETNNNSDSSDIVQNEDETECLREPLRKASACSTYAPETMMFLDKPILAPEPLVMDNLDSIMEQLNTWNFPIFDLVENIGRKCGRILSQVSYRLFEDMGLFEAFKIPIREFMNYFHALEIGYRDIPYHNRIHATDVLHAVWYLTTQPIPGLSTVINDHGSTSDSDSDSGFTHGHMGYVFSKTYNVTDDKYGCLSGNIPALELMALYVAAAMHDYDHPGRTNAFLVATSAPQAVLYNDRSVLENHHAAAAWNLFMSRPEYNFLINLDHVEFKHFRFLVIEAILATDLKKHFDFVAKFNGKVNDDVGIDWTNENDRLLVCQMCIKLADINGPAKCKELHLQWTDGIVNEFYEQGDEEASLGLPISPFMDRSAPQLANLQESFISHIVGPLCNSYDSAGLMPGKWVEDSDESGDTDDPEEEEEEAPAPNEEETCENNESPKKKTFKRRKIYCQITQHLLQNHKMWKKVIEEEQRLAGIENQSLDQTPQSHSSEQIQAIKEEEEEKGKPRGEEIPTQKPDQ
The target of another assay is Adenosine receptor A2a (Homo sapiens, UniProt P29274).
Sequence of Adenosine receptor A2a (P29274 whole entry): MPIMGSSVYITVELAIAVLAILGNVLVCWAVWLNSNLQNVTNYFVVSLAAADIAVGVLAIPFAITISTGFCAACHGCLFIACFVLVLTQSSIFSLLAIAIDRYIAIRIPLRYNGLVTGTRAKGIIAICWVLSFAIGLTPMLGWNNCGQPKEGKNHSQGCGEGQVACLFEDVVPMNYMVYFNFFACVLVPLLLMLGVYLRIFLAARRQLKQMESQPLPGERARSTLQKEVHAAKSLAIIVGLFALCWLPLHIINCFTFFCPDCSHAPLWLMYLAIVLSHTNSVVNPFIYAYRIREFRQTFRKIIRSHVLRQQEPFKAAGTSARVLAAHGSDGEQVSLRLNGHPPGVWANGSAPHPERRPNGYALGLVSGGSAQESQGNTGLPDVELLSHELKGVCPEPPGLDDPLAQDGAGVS
The next assay deals with T5, Endothelin-1 receptor (Homo sapiens, UniProt P25101).
T5 sequence (P25101 whole entry): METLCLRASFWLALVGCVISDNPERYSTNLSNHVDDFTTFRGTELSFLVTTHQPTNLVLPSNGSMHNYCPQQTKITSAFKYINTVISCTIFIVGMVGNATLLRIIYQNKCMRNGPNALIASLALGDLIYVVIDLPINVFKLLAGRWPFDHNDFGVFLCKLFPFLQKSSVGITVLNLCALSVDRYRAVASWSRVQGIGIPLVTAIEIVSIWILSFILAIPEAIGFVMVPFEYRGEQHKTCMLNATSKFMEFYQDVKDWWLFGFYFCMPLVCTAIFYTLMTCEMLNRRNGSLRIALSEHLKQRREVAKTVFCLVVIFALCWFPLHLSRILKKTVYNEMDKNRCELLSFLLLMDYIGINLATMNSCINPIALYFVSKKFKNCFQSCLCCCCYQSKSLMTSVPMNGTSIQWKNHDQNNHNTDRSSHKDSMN
Also: assay procedure not described here.

Regarding `CC[C@@H](C(N)=O)N1CCCC1=O`, the AC50 (in assay [1]; in assay [2]; in assay [3]; on D(1A) dopamine receptor; in [4]; in assay [5]) was greater than 30 µM each time. Also, the concentration at half-maximal activity (AC50) (in assay [6]; in assay [7]; at Adenosine receptor A2a; on Endothelin-1 receptor) was greater than 30 µM each time.

Consider `CCC(CC)(CC(=O)Nc1cccc(/C=C/c2nc(C3CCC3)cs2)c1)C(=O)O`, for which the concentration at half-maximal activity (AC50) (in [5]; at Adenosine receptor A2a; at Endothelin-1 receptor) was greater than 30 µM each time.

In the case of `CC(=O)c1ccc2c(c1)N(CCCN(C)C)c1ccccc1S2` [ACEPROMAZINE], on D(1A) dopamine receptor, the AC50 (as a rule, the midpoint of the concentration-response curve, whichever way the signal moves) was greater than 30 µM.

For `CCCC1O[C@@H]2C[C@H]3[C@@H]4CCC5=CC(=O)C=C[C@]5(C)[C@H]4[C@@H](O)C[C@]3(C)[C@]2(C(=O)CO)O1` (stereo partly drawn) [BUDESONIDE], the concentration at half-maximal activity (AC50) in [1] is greater than 10 µM; in [3], greater than 10 µM; on D(1A) dopamine receptor, greater than 10 µM; in assay [4], greater than 10 µM; in assay [5] it was greater than 10 µM; in [6], greater than 30 µM. The concentration at half-maximal activity (AC50) in assay [7] is greater than 30 µM; at Adenosine receptor A2a, greater than 10 µM.

Consider `C=CCN1C[C@H](C(=O)N(CCCN(C)C)C(=O)NCC)C[C@@H]2c3cccc4[nH]cc(c34)C[C@H]21` [CABERGOLINE], for which the AC50 in assay [1] is greater than 10 µM; in [2], greater than 10 µM; at D(1A) dopamine receptor, 0.0367 µM; in [5], 5.4 µM; in assay [6], greater than 30 µM; in [7] it was greater than 30 µM. Also, on Adenosine receptor A2a, the concentration at half-maximal activity (AC50) was greater than 10 µM.

Regarding `NC1CCN(c2c(F)cc3c(=O)c(C(=O)O)cn(C4CC4)c3c2Cl)C1` (stereo not drawn) [CLINAFLOXACIN], the half-maximal activity concentration (AC50) at Endothelin-1 receptor was greater than 300 µM.

`CN1CCN(C2=Nc3ccccc3Sc3ccc(Cl)cc32)CC1` [CLOTHIAPINE]: the half-maximal activity concentration (AC50) in assay [1] was greater than 30 µM; in [2], 1.2 µM; in assay [3], 1.3 µM; at D(1A) dopamine receptor it was greater than 30 µM; in [4] it was greater than 30 µM; in assay [6], 0.8 µM. Besides, in assay [7], the AC50 was greater than 30 µM.

Regarding `CCOc1ccc(Cc2cc([C@@H]3O[C@H](CO)[C@@H](O)[C@H](O)[C@H]3O)ccc2Cl)cc1` [DAPAGLIFLOZIN], the concentration at half-maximal activity (AC50) in assay [1] is greater than 10 µM; in [2], greater than 10 µM; in assay [5], greater than 30 µM; in assay [6] it was greater than 30 µM; in assay [7], greater than 30 µM; at Adenosine receptor A2a, greater than 30 µM.

`CN(C)CC/C=C1\c2ccccc2CSc2ccccc21` [DOTHIEPIN]: the AC50 is 3.6 µM in [3]; greater than 30 µM at D(1A) dopamine receptor; 29 µM in [4]; 20 µM in assay [5]; 1.6 µM in assay [6]; greater than 30 µM in assay [7]. Besides, the concentration at half-maximal activity (AC50) at Adenosine receptor A2a and on Endothelin-1 receptor was greater than 30 µM in each case.

With `CC[C@H]1CN2CCc3cc(OC)c(OC)cc3[C@@H]2C[C@@H]1C[C@H]1NCCc2cc(OC)c(OC)cc21` [EMETINE], the half-maximal activity concentration (AC50) in [1] was greater than 30 µM; in [3], greater than 30 µM; at D(1A) dopamine receptor it was greater than 30 µM; in [4], 1.2 µM; in assay [5] it was greater than 30 µM; in [6], greater than 30 µM. The AC50 (in [7]; on Adenosine receptor A2a; on Endothelin-1 receptor) was greater than 30 µM each time.

Turning to `Cc1cc(C)c(NC(=O)CN(CC(=O)O)CC(=O)O)c(C)c1Br` [MEBROFENIN], the AC50 (in assay [1]; in [2]; in assay [3]; on D(1A) dopamine receptor; in assay [4]; in assay [6]) was greater than 30 µM in each case. In [7], the concentration at half-maximal activity (AC50) was greater than 30 µM.

As to `COc1ccccc1N1CCN(CC(O)COc2cccc3ccccc23)CC1` (stereo not drawn) [NAFTOPIDIL], the concentration at half-maximal activity (AC50) is greater than 30 µM in assay [1]; greater than 30 µM in [2]; 0.84 µM in [3]; greater than 30 µM at D(1A) dopamine receptor; 3.7 µM in [4]; 5.5 µM in [5]. Besides, the half-maximal activity concentration (AC50) (in assay [6]; in assay [7]; at Adenosine receptor A2a) was greater than 30 µM each time.

Take `COc1cc2nc(N3CCN(C(=O)c4ccco4)CC3)nc(N)c2cc1OC` [PRAZOSIN]: the half-maximal activity concentration (AC50) in assay [1] was greater than 10 µM; in assay [3] it was 26 µM; at D(1A) dopamine receptor, greater than 10 µM; in assay [5], greater than 10 µM; in assay [6] it was greater than 30 µM; in assay [7], greater than 30 µM. Further, the concentration at half-maximal activity (AC50) on Adenosine receptor A2a and at Endothelin-1 receptor was greater than 30 µM each time.

Regarding `O=[N+]([O-])c1cn2c(n1)OC[C@@H](OCc1ccc(OC(F)(F)F)cc1)C2` [PRETOMANID], the concentration at half-maximal activity (AC50) in assay [2] is greater than 10 µM; in assay [5], greater than 10 µM; in assay [6], greater than 10 µM; in assay [7], greater than 10 µM; at Adenosine receptor A2a, greater than 30 µM; at Endothelin-1 receptor it was greater than 30 µM.

As for `Cc1oc(=O)oc1CN1CCN(c2cc3c(cc2F)c(=O)c(C(=O)O)c2n3C(C)S2)CC1` (stereo not drawn) [PRULIFLOXACIN], the AC50 (in assay [1]; in [2]; in [3]; on D(1A) dopamine receptor; in assay [4]; in assay [6]) was greater than 30 µM in each case. This compound also registered a concentration at half-maximal activity (AC50) in assay [7] greater than 30 µM.

For `COC1=C(OC)C(=O)C(C/C=C(\C)CC/C=C(\C)CC/C=C(\C)CC/C=C(\C)CC/C=C(\C)CC/C=C(\C)CC/C=C(\C)CC/C=C(\C)CC/C=C(\C)CCC=C(C)C)=C(C)C1=O` [UBIDECARENONE], the AC50 (in assay [1]; in [2]; in [3]; at D(1A) dopamine receptor; in assay [4]; in assay [6]) was greater than 30 µM in each case. Also, the AC50 in assay [7] was greater than 30 µM.

With `CCOc1ccccc1OCC1CNCCO1` (stereo not drawn) [VILOXAZINE], the concentration at half-maximal activity (AC50) (in assay [1]; in assay [2]; in assay [3]; on D(1A) dopamine receptor; in [4]; in assay [5]) was greater than 10 µM in each case. Also, the AC50 (in assay [7]; at Adenosine receptor A2a; at Endothelin-1 receptor) was greater than 30 µM each time.
